{"source": "patent US20020015745A1", "about": "“Process for enhancing immune response in canines using a dietary composition including garlic” (priority 2000, published 2002)", "origin": "cited, not measured here", "system": "human prostate carcinoma LNCaP cells", "conditions": "in culture", "data": [{"smiles": "C=CCSSC[C@H](N)C(=O)O", "note": "[S-allylmercaptocysteine]", "values": [{"measurement": "growth of human prostate carcinoma LNCaP cells", "value": "reduce the growth"}]}]}
